Experimental data published in patent US20160355475A1, “NOVEL INDOLE DERIVATIVE COMPOUND AND PHARMACEUTICAL COMPOSITION COMPRISING THE SAME” (CHONG KUN DANG PHARMACEUTICAL CORP., priority 2014, published 2016).

Columns and labels:
HDAC6 human recombinant = biological target: T1, HDAC6 human recombinant (Homo sapiens, UniProt Q9UBN7); assay: HDAC6 enzyme activity inhibition (fluorimetric, in vitro); format: biochemical; conditions: 37° C., 60 minutes; tested at 0.1, 1, 10, 100 and 1000 nM
T1 construct: purchased Calbiochem 382180
T1 sequence (Q9UBN7 1-1215): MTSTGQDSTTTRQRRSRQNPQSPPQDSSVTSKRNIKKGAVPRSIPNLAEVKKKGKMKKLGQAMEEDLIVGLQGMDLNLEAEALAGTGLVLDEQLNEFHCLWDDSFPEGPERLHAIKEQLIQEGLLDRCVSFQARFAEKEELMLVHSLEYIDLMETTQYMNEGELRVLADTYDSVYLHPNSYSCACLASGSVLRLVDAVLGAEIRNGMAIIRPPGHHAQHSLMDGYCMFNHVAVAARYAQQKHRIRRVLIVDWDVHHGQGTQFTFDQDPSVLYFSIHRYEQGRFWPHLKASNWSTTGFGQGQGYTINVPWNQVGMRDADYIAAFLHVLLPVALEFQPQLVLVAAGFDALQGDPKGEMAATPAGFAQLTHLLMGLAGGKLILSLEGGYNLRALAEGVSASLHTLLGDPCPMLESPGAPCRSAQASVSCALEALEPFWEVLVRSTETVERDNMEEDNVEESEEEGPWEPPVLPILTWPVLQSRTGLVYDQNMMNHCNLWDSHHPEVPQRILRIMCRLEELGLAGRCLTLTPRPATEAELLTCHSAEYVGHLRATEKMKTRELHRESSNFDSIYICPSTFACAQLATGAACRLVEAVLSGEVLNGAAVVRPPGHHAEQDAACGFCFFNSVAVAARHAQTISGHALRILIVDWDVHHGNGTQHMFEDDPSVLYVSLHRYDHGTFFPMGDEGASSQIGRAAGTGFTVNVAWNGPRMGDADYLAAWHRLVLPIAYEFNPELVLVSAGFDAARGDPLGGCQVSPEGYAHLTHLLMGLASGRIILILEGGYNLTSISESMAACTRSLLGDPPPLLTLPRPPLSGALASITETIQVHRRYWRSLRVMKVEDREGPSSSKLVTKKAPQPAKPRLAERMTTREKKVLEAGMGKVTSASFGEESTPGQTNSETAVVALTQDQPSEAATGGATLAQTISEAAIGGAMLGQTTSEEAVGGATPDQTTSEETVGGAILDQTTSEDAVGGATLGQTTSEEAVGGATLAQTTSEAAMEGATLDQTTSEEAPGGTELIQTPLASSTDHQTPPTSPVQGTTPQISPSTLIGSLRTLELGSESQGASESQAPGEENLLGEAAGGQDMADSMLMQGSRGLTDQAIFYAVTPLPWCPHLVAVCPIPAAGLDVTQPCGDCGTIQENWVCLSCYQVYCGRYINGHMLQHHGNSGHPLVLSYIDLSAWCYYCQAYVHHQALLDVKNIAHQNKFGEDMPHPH
Experimental: (§1) 1. Experiment on Activities in HDAC Enzymes (HDAC1 and HDAC6)
(§2) Assays were performed using a HDAC1 fluorimetric drug discovery assay kit (Enzolifesciences: BML-AK511) and a HDAC6 human recombinant (Calbiochem: 382180). The assay mixture of the kit was treated with each of the compounds of the Examples at concentrations 100, 1000 and 10000 nM for HDAC1 assay and 0.1, 1, 10, 100 and 1000 nM for HDAC6 assay. The treated assay mixture was allowed to react at 37° C. for 60 minutes, and then was treated with a developer and allowed to stand at 37° C. for 30 minutes, followed by quantification of the fluorescence. In Table 17, lower HDAC6 values (μM) indicate higher HDAC6 inhibitory activities of the compounds. Also, because selective HDAC6 inhibitors should not inhibit HDAC1 (μM), higher HDAC1 values indicate higher HDAC6 selectivity of the compounds.

HDAC1 = biological target: T2, HDAC1 (Homo sapiens, UniProt Q13547); assay: HDAC1 enzyme activity inhibition (HDAC1 fluorimetric drug discovery assay kit); format: biochemical; conditions: 37° C., 60 minutes; tested at 100, 1000 and 10000 nM
T2 construct: purchased Enzolifesciences BML-AK511
Experimental: as §1, §2

T2 sequence (Q13547 whole entry): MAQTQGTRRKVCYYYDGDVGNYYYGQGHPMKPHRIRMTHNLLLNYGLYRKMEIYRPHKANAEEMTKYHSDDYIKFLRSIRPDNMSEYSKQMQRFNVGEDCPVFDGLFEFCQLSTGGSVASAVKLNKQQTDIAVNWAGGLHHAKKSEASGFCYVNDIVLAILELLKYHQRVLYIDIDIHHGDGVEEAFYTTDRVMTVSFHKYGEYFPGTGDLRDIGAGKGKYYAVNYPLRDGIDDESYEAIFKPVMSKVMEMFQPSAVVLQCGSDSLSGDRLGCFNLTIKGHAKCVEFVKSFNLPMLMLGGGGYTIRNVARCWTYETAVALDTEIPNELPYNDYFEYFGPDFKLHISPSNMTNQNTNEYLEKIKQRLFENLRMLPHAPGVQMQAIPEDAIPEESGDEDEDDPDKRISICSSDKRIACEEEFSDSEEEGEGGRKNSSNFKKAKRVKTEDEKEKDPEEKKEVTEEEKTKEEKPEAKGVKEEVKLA

Structure (SMILES)	IC50 (HDAC6 human recombinant)	IC50 (HDAC1)
Cc1c(Cc2ccc(C(=O)NO)cc2)c2ccccc2n1CCN1CCOCC1 [Compound 153, N-hydroxy-4-((2-methyl-1-(2-morpholinoethyl)-1H-indol-3-yl)methyl)benzamide]	140 nM	4380 nM
Cc1c(Cc2ccc(C(=O)NO)cc2)c2ccccc2n1CCN1CCN(C)CC1 [Compound 154, N-hydroxy-4-((2-methyl-1-(2-(4-methylpiperazin-1-yl)ethyl)-1H-indol-3-yl)methyl)benzamide]	8 nM	2220 nM
O=C(NO)c1ccc(Cc2c(CN3CCOCC3)[nH]c3ccccc23)cc1 [Compound 155, N-hydroxy-4-((2-(morpholinomethyl)-1H-indol-3-yl)methyl)benzamide]	24 nM	3860 nM
Cc1c(Cc2ccc(C(=O)NO)cc2)c2ccccc2n1CCN1CCN(C(C)C)CC1 [Compound 196, N-hydroxy-4-((1-(2-(4-isopropylpiperazin-1-yl)ethyl)-2-methyl-1H-indol-3-yl)methyl)benzamide]	6 nM	1610 nM
Cc1c(Cc2ccc(C(=O)NO)cc2)c2ccccc2n1CCN1CCN(CCO)CC1 [Compound 197, N-hydroxy-4-((1-(2-(4-(2-hydroxyethyl)piperazin-1-yl)ethyl)-2-methyl-1H-indol-3-yl)methyl)benzamide]	8 nM	1810 nM
COCCN1CCN(CCn2c(C)c(Cc3ccc(C(=O)NO)cc3)c3ccccc32)CC1 [Compound 198, N-hydroxy-4-((1-(2-(4-(2-methoxyethyl)piperazin-1-yl)ethyl)-2-methyl-1H-indol-3-yl)methyl)benzamide]	5 nM	1890 nM
Cc1c(Cc2ccc(C(=O)NO)cc2)c2ccccc2n1CCN1CCC[C@H]1CO [Compound 199, (S)—N-hydroxy-4-((1-(2-(2-(hydroxymethyl)pyrrolidin-1-yl)ethyl)-2-methyl-1H-indol-3-yl)methyl)benzamide]	4 nM	1260 nM
Cc1c(Cc2ccc(C(=O)NO)cn2)c2ccccc2n1CCN1CCN(C)CC1 [Compound 243, N-hydroxy-6-((2-methyl-1-(2-(4-methylpeperazin-1-yl)ethyl)-1H-indol-3-yl)methyl)nicotinamide]	340 nM	
Cc1c(Cc2ccc(C(=O)NO)cn2)c2ccccc2n1CCN1CCOCC1 [Compound 244, N-hydroxy-6-((2-methyl-1-(2-morpholinoethyl)-1H-indol-3-yl)methyl)nocotinamide]	236 nM	
Cc1c(Cc2ccc(C(=O)NO)cc2)c2ccccc2n1CCN1CCCC(F)C1 (centres unmarked) [Compound 550, 4-((1-(2-(3-fluoropiperidin-1-yl)ethyl)-2-methyl-1H-indol-3-yl)methyl)-N-hydroxybenzamide]	68 nM	
Cc1c(Cc2ccc(C(=O)NO)cc2)c2ccccc2n1CCN1CCC[C@H]1CF [Compound 551, (S)-4-((1-(2-(2-(fluoromethyl)pyrrolidin-1-yl)ethyl)-2-methyl-1H-indol-3-yl)methyl)-N-hydroxybenzamide]	82 nM	
Cc1c(Cc2ccc(C(=O)NO)cc2)c2ccccc2n1CC1CCN(Cc2ccccc2)CC1 [Compound 556, 4-((1-((1-Benzylpiperidin-4-yl)methyl)-2-methyl-1H-indol-3-yl)methyl)-N-hydroxybenzamide]	108 nM	
Cc1c(Cc2ccc(C(=O)NO)cc2)c2ccccc2n1CC1CCN(CCc2ccccc2)CC1 [Compound 559, N-hydroxy-4-((2-methyl-1-((1-phenethylpiperidin-4-yl)methyl)-1H-indol-3-yl)methyl)benzamide]	273 nM	
Cc1c(Cc2ccc(C(=O)NO)cc2F)c2ccccc2n1CC1CCN(CC(C)(C)F)CC1 [Compound 562, 3-Fluoro-4-((1-((1-(2-fluoro-2-methylpropyl)piperidin-4-yl)methyl)-2-methyl-1H-indol-3-yl)methyl)-N-hydroxybenzamide]	87 nM	
Cc1c(Cc2ccc(C(=O)NO)cc2)c2ccccc2n1CCC1CCN(CC(C)(C)F)CC1 [Compound 563, 4-((1-(2-(1-(2-Fluoro-2-methylpropyl)piperidin-4-yl)ethyl)-2-methyl-1H-indol-3-yl)methyl)-N-hydroxybenzamide]	307 nM	
Cc1c(Cc2ccc(C(=O)NO)cc2)c2ccccc2n1CC1CCN(CC2(F)CCOCC2)CC1 [Compound 584, 4-((1-((1-((4-Fluoro-tetrahydro-2H-pyran-4-yl)methyl)piperidin-4-yl)methyl)-2-methyl-1H-indol-3-yl)methyl)-N-hydroxybenzamide]	7 nM	
CC(C)(F)CN1CCC(Cn2cc(Cc3ccc(C(=O)NO)cc3)c3ccccc32)CC1 [Compound 614, 4-((1-((1-(2-Fluoro-2-methylpropyl)piperidin-4-yl)methyl)-1H-indol-3-yl)methyl)-N-hydroxybenzamide]	150 nM	
CC(C)(F)CN1CCC(Cn2c(-c3ccccc3)c(Cc3ccc(C(=O)NO)cc3)c3ccccc32)CC1 [Compound 616, 4-((1-((1-(2-Fluoro-2-methylpropyl)piperidin-4-yl)methyl)-2-phenyl-1H-indol-3-yl)methyl)-N-hydroxybenzamide]	821 nM	
Cc1c(Cc2ccc(C(=O)NO)cc2)c2ccccc2n1CC1CCN(Cc2ccncc2)CC1 [Compound 621, N-hydroxy-4-((2-methyl-1-((1-(pyridin-4-ylmethyl)piperidin-4-yl)methyl)-1H-indol-3-yl)methyl)benzamide]	89 nM	
Cc1c(Cc2ccc(C(=O)NO)cc2)c2ccccc2n1CC1CCN(Cc2ccc(F)cc2)CC1 [Compound 622, 4-((1-((1-(4-Fluorobenzyl)piperidin-4-yl)methyl)-2-methyl-1H-indol-3-yl)methyl)-N-hydroxybenzamide]	90 nM	
CC(C)(F)CN1CCC(Cn2c(C3=CCOCC3)c(Cc3ccc(C(=O)NO)cc3)c3ccccc32)CC1 [Compound 627, 4-((2-(3,6-Dihydro-2H-pyran-4-yl)-1-((1-(2-fluoro-2-methylpropyl)piperidin-4-yl)methyl)-1H-indol-3-yl)methyl)-N-hydroxybenzamide]	352 nM	
Cc1c(Cc2ccc(C(=O)NO)cc2)c2ccccc2n1CC1CCN(CC2(F)CCN(C(=O)NC(C)C)CC2)CC1 [Compound 695, 4-Fluoro-4-((4-((3-(4-(hydroxycarbamoyl)benzyl)-2-methyl-1H-indol-1-yl)methyl)piperidin-1-yl)methyl)-N-isopropylpiperidine-1-carboxamide]	24 nM	
CC(C)(F)CN1CCC(Cn2cc(Cc3ccc(C(=O)NO)cc3)c3c(F)cccc32)CC1 [Compound 707, 4-((4-Fluoro-1-((1-(2-fluoro-2-methylpropyl)piperidin-4-yl)methyl)-1H-indol-3-yl)methyl)-N-hydroxybenzamide]	171 nM	
CC(C)(F)CN1CCC(Cn2cc(Cc3ccc(C(=O)NO)cc3)c3ccc(F)cc32)CC1 [Compound 708, 4-((6-Fluoro-1-((1-(2-fluoro-2-methylpropyl)piperidin-4-yl)methyl)-1H-indol-3-yl)methyl)-N-hydroxybenzamide]	432 nM	
Cc1c(Cc2ccc(C(=O)NO)cc2)c2ccccc2n1CC1CN(CC(C)(C)F)C1 [Compound 750, 4-((1-((1-(2-Fluoro-2-methylpropyl)azetidin-3-yl)methyl)-2-methyl-1H-indol-3-yl)methyl)-N-hydroxybenzamide]	114 nM	
